Data from US20230303549A1, “SUBSTITUTED HETEROARYLOXYPYRIDINES, THE SALTS THEREOF AND THEIR USE AS HERBICIDAL AGENTS” (Bayer Aktiengesellschaft, priority 2020, published 2023).

Columns and labels:
Type in all cases: in vivo
Stellaria media (STEME) [1] = assay: Post-emergence herbicidal efficacy at 320 g/ha, greenhouse pot test; conditions: visual rating vs untreated control after about 3 weeks
Outline: (§1)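 Visual percent activity (0% = like control, 100% = plants dead) is scored about 3 weeks after treatment, relative to untreated plants. Compounds go on as wettable powder or emulsion concentrate with 0.5% additive at 600 liters per hectare water, at the one-leaf stage.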

[2] = test system: Amaranthus retroflexus (AMARE); assay: as above; conditions: visual rating vs untreated control after about 3 weeks
Outline: as §1

[3] = test system: Alopecurus myosuroides (ALOMY); assay: as above; conditions: visual rating vs untreated control after about 3 weeks
Outline: as §1

Veronica persica (VERPE) [4] = assay: as above; conditions: 320 g/ha, visual rating vs untreated control after about 3 weeks
Outline: as §1

Poa annua (POAAN) = assay: Pre-emergence herbicide efficacy at 320 g/ha, greenhouse pot test; conditions: visual scoring vs untreated control after about 3 weeks
Outline: (§2)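 Seeds sown in sandy loam, covered, and compound (WP or EC) sprayed onto soil surface with 0.5% additive at 600 L/ha water. Pots kept in greenhouse; efficacy scored visually after about 3 weeks as % versus untreated control (100% = plants dead).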

Stellaria media (STEME) [5] = assay: as above; conditions: visual scoring vs untreated control after about 3 weeks
Outline: as §2

[6] = test system: Digitaria sanguinalis (DIGSA); assay: as above; conditions: visual scoring vs untreated control after about 3 weeks
Outline: as §2

Lolium rigidum (LOLRI) = assay: as above; conditions: visual scoring vs untreated control after about 3 weeks
Outline: as §2

[7] = test system: Matricaria inodora (MATIN); assay: as above; conditions: visual scoring vs untreated control after about 3 weeks
Outline: as §2

[8] = test system: Amaranthus retroflexus (AMARE); assay: as above; conditions: visual scoring vs untreated control after about 3 weeks
Outline: as §2

Setaria viridis (SETVI) [9] = assay: as above; conditions: visual scoring vs untreated control after about 3 weeks
Outline: as §2

Bassia scoparia (KCHSC) [10] = assay: as above; conditions: 320 g/ha, visual scoring vs untreated control after about 3 weeks
Outline: as §2

[11] = test system: Alopecurus myosuroides (ALOMY); assay: as above; conditions: visual scoring vs untreated control after about 3 weeks
Outline: as §2

[12] = test system: Echinochloa crus-galli (ECHCG); assay: as above; conditions: visual scoring vs untreated control after about 3 weeks
Outline: as §2

[13] = test system: Abutilon theophrasti (ABUTH); assay: as above; conditions: visual scoring vs untreated control after about 3 weeks
Outline: as §2

Veronica persica (VERPE) [14] = assay: as above; conditions: visual scoring vs untreated control after about 3 weeks
Outline: as §2

Viola tricolor (VIOTR) [15] = assay: Pre-emergence herbicide efficacy at 80 g/ha, greenhouse pot test; conditions: visual scoring vs untreated control after about 3 weeks
From the text: (§3) Seeds of monocotyledonous and dicotyledonous weed plants and crop plants were placed in plastic or organic planting pots and covered with soil. The compounds of the invention, formulated in the form of wettable powders (WP) or as emulsion concentrates (EC), were then applied to the surface of the covering soil as aqueous suspension or emulsion with addition of 0.5% additive at a water application rate of […] (converted). After the treatment, the pots were placed in a greenhouse and kept under good growth conditions for the test plants. After about 3 weeks, the effect of the preparations was scored visually in comparison with untreated controls as percentages. For example, 100% activity=the plants have died, 0% activity=like control plants. Tables D1 to D12 below show the effects of selected compounds of the general formula (I) according to Table 1 on various harmful plants and an application rate corresponding to 80 g/ha, which were obtained by the experimental procedure mentioned above.

[16] = test system: Amaranthus retroflexus (AMARE); assay: as above; conditions: visual scoring vs untreated control after about 3 weeks
From the text: as §3

[17] = test system: Polygonum convolvulus (POLCO); assay: as above; conditions: visual scoring vs untreated control after about 3 weeks
From the text: as §3

[18] = test system: Alopecurus myosuroides (ALOMY); assay: as above; conditions: visual scoring vs untreated control after about 3 weeks
From the text: as §3

[19] = test system: Abutilon theophrasti (ABUTH); assay: as above; conditions: visual scoring vs untreated control after about 3 weeks
From the text: as §3

Veronica persica (VERPE) [20] = assay: as above; conditions: visual scoring vs untreated control after about 3 weeks
From the text: as §3

Viola tricolor (VIOTR) [21] = assay: Post-emergence herbicidal efficacy at 80 g/ha, greenhouse pot test; conditions: visual rating vs untreated control after about 3 weeks
Method: (§4) Seeds of monocotyledonous and dicotyledonous weeds and crop plants were placed in sandy loam in plastic or organic planting pots, covered with soil and cultivated in a greenhouse under controlled growth conditions. 2 to 3 weeks after sowing, the test plants were treated at the one-leaf stage. The compounds of the invention, formulated in the form of wettable powders (WP) or as emulsion concentrates (EC), were then sprayed onto the green parts of the plants as aqueous suspension or emulsion with addition of 0.5% additive at a water application rate of 600 l/ha (converted). After the test plants had been kept in the greenhouse under optimum growth conditions for about 3 weeks, the activity of the preparations was rated visually in comparison to untreated controls. For example, 100% activity=the plants have died, 0% activity=like control plants. Tables B1 to B6 below show the effects of selected compounds of the general formula (I) according to Table 1 on various harmful plants and an application rate corresponding to 80 g/ha, which were obtained by the experimental procedure mentioned above.

[22] = test system: Amaranthus retroflexus (AMARE); assay: as above; conditions: visual rating vs untreated control after about 3 weeks
Method: as §4

[23] = test system: Alopecurus myosuroides (ALOMY); assay: as above; conditions: visual rating vs untreated control after about 3 weeks
Method: as §4

[24] = test system: Digitaria sanguinalis (DIGSA); assay: Post-emergence herbicidal efficacy at 320 g/ha, greenhouse pot test; conditions: visual rating vs untreated control after about 3 weeks
Outline: as §1

Bassia scoparia (KCHSC) [25] = assay: as above; conditions: visual rating vs untreated control after about 3 weeks
Outline: as §1

[26] = test system: Matricaria inodora (MATIN); assay: Pre-emergence herbicide efficacy at 80 g/ha, greenhouse pot test; conditions: visual scoring vs untreated control after about 3 weeks
From the text: as §3

Setaria viridis (SETVI) [27] = assay: as above; conditions: visual scoring vs untreated control after about 3 weeks
From the text: as §3

SMILES	Post-emergence action against Stellaria media (STEME) (Stellaria media (STEME) [1])	Post-emergence efficacy against Amaranthus retroflexus (AMARE) [2]	Post-emergence efficacy against Alopecurus myosuroides (ALOMY) [3]	Post-emergence efficacy against Veronica persica (VERPE) (Veronica persica (VERPE) [4])	Pre-emergence efficacy against Poa annua (POAAN) (Poa annua (POAAN))	Pre-emergence efficacy against Stellaria media (STEME) (Stellaria media (STEME) [5])	Pre-emergence efficacy against Digitaria sanguinalis (DIGSA) [6]	Pre-emergence efficacy against Matricaria inodora (MATIN) [7]	Pre-emergence efficacy against Amaranthus retroflexus (AMARE) [8]	Pre-emergence efficacy against Setaria viridis (SETVI) (Setaria viridis (SETVI) [9])	Pre-emergence efficacy against Bassia scoparia (KCHSC) (Bassia scoparia (KCHSC) [10])	Pre-emergence efficacy against Alopecurus myosuroides (ALOMY) [11]	Pre-emergence efficacy against Echinochloa crus-galli (ECHCG) [12]	Pre-emergence efficacy against Abutilon theophrasti (ABUTH) [13]	Pre-emergence efficacy against Veronica persica (VERPE) (Veronica persica (VERPE) [14])	Pre-emergence efficacy against Viola tricolor (VIOTR) (Viola tricolor (VIOTR) [15])	Pre-emergence efficacy against Amaranthus retroflexus (AMARE) [16]	Pre-emergence efficacy against Polygonum convolvulus (POLCO) [17]	Pre-emergence efficacy against Alopecurus myosuroides (ALOMY) [18]	Pre-emergence efficacy against Abutilon theophrasti (ABUTH) [19]	further results
Cc1cc(C)c(-c2cc(C(F)(F)F)no2)c(Oc2ncc(Cl)cn2)n1 [Example I-2]	100%	100%	90%	100%	100%	100%	100%	100%	100%	100%	90%	100%	100%	100%	100%	90%	100%	80%	80%	90%	Pre-emergence efficacy against Lolium rigidum (LOLRI) (Lolium rigidum (LOLRI)): 90%; Pre-emergence efficacy against Veronica persica (VERPE) (Veronica persica (VERPE) [20]): 90%; Post-emergence efficacy against Viola tricolor (VIOTR) (Viola tricolor (VIOTR) [21]): 90%; Post-emergence efficacy against Amaranthus retroflexus (AMARE) [22]: 100%; Post-emergence efficacy against Alopecurus myosuroides (ALOMY) [23]: 90%
Cc1cc(C)c(-c2cc(C(F)Cl)no2)c(Oc2ncc(Cl)cn2)n1 (centres unmarked) [Example I-5]	90%	100%	100%	100%	100%	100%	100%	100%	100%	100%	100%	100%	90%	100%	90%	90%	100%	90%	90%	90%	Post-emergence efficacy against Digitaria sanguinalis (DIGSA) [24]: 90%; Post-emergence efficacy against Bassia scoparia (KCHSC) (Bassia scoparia (KCHSC) [25]): 90%; Pre-emergence efficacy against Matricaria inodora (MATIN) [26]: 90%; Pre-emergence efficacy against Setaria viridis (SETVI) (Setaria viridis (SETVI) [27]): 90%; Pre-emergence efficacy against Veronica persica (VERPE) (Veronica persica (VERPE) [20]): 90%; Post-emergence efficacy against Viola tricolor (VIOTR) (Viola tricolor (VIOTR) [21]): 80%; Post-emergence efficacy against Amaranthus retroflexus (AMARE) [22]: 100%; Post-emergence efficacy against Alopecurus myosuroides (ALOMY) [23]: 80%
